Reference: ChEMBL document CHEMBL4765425, “Synthesis of 1,3,4-oxadiazole derivatives with anticonvulsant activity and their binding to the GABA receptor” (Eur J Med Chem, 2020)
Active and inactive are the calls of the source. The rule behind the calls is not given here.

Columns and labels:
Mus musculus [1] = experiment: Anticonvulsant activity in Kunming mouse assessed as reduction in MES-induced seizure at 100 mg/kg, ip measured after 30 mins; assay type: functional, organism-based
Mus musculus [2] = experiment: Anticonvulsant activity in Kunming mouse assessed as reduction in ScPTZ-induced seizure at 300 mg/kg, ip measured after 30 mins; assay type: functional, organism-based
[3] = Neurotoxicity in Kunming mouse at 100 mg/kg, ip measured after 30 mins by rotarod test; assay type: toxicity, organism-based; conditions: in vivo, 0.5 h
[4] = Neurotoxicity in Kunming mouse at 300 mg/kg, ip measured after 30 mins by rotarod test; assay type: toxicity, organism-based; conditions: in vivo, 0.5 h
Mus musculus [5] = experiment: Anticonvulsant activity in Kunming mouse assessed as reduction in MES-induced seizure at 30 mg/kg, ip measured after 30 mins; assay type: functional, organism-based
Mus musculus [6] = experiment: Anticonvulsant activity in Kunming mouse assessed as reduction in ScPTZ-induced seizure at 100 mg/kg, ip measured after 30 mins; assay type: functional, organism-based
Mus musculus [7] = experiment: Anticonvulsant activity in ip dosed Kunming mouse assessed as reduction in MES-induced seizure measured after 30 mins; assay type: functional; conditions: 0.5 h
Mus musculus [8] = experiment: Anticonvulsant activity in ip dosed Kunming mouse assessed as reduction in ScPTZ-induced seizure measured after 30 mins; assay type: functional; conditions: 0.5 h
[9] = Neurotoxicity in ip dosed Kunming mouse measured after 30 mins by rotarod test; assay type: toxicity, organism-based; conditions: in vivo
[10] = Protection index, ratio of TD50 for neurotoxicity in ip dosed Kunming mouse to ED50 for anticonvulsant activity in ip dosed MES-induced Kunming mouse; assay type: toxicity, organism-based; conditions: in vivo, read-out: TI
[11] = Protection index, ratio of TD50 for neurotoxicity in ip dosed Kunming mouse to ED50 for anticonvulsant activity in ip dosed ScPTZ-induced Kunming mouse; assay type: toxicity, organism-based; conditions: in vivo, read-out: TI
[12] = Displacement of [3H]flunitrazepam from GABA-A receptor benzodiazepine site in mouse cerebellum synaptosomal membrane; assay type: subcellular, Synaptosome
Mus musculus [13] = experiment: Anticonvulsant activity in Kunming mouse assessed as reduction in MES-induced seizure at 300 mg/kg, ip measured after 30 mins; assay type: functional, organism-based
Mus musculus [14] = experiment: Anticonvulsant activity in Kunming mouse assessed as reduction in MES-induced seizure at 2 mg/kg, ip measured after 30 mins; assay type: functional, organism-based
Rattus norvegicus = experiment: Anxiolytic activity in Wistar rat assessed as increase in time spent in open sided arms at 1 mg/kg, ip measured for 5 mins by elevated plus maze test; assay type: functional, organism-based
Mus musculus [15] = experiment: Anticonvulsant activity in Kunming mouse assessed as reduction in ScPTZ-induced seizure at 30 mg/kg, ip measured after 30 mins; assay type: functional, organism-based

Row | SMILES | Activity (Mus musculus [1]) | Activity (Mus musculus [2]) | Activity [3] | Activity [4] | Activity (Mus musculus [6]) | Activity (Mus musculus [13]) | further results
1 | O=C1CCc2cc(OCc3nnc(SCc4ccc(F)cc4)o3)ccc2N1 | inactive | Active | Non-Toxic | Non-Toxic | – | – | –
2 | CCCCSc1nnc(COc2ccc(NC(C)=O)cc2)o1 | – | – | Non-Toxic | Non-Toxic | – | – | Activity (Mus musculus [5]): inactive
3 | CC(=O)Nc1ccc(OCc2nnc(SCc3ccc(Cl)cc3)o2)cc1 | inactive | – | Non-Toxic | Non-Toxic | inactive | – | –
4 | O=C1CCc2cc(OCc3nnc(SCc4ccc(Cl)cc4)o3)ccc2N1 | – | – | Non-Toxic | Non-Toxic | inactive | – | –
5 | O=C1CCc2cc(OCc3nnc(SCc4ccc(C(F)(F)F)cc4)o3)ccc2N1 | Active | – | Non-Toxic | Non-Toxic | Active | – | ED50 (Mus musculus [7]): 23.1 mg/kg; ED50 (Mus musculus [8]): 27.6 mg/kg; TD50 at 0.5 h [9]: 376 mg/kg; selectivity ratio [10]: 16.2; selectivity ratio [11]: 13.6; IC50 [12]: 5.28 µM
6 | CC(=O)Nc1ccc(OCc2nnc(SCc3cccc(C(F)(F)F)c3)o2)cc1 | – | Active | Non-Toxic | Non-Toxic | – | Active | –
7 | CC(=O)Nc1ccc(OCc2nnc(SCc3ccccc3)o2)cc1 | – | – | Non-Toxic | Non-Toxic | – | – | –
8 | CCCCCCSc1nnc(COc2ccc3c(c2)CCC(=O)N3)o1 | Active | – | Non-Toxic | Non-Toxic | Active | – | Activity (Mus musculus [5]): Active; ED50 (Mus musculus [7]): 10.4 mg/kg; ED50 (Mus musculus [8]): 17.9 mg/kg; TD50 at 0.5 h [9]: 466 mg/kg; selectivity ratio [10]: 44.7; selectivity ratio [11]: 26; IC50 [12]: 0.88 µM
9 | CCCCCSc1nnc(COc2ccc(NC(C)=O)cc2)o1 | Active | – | Non-Toxic | Non-Toxic | Active | – | ED50 (Mus musculus [7]): 22.6 mg/kg; ED50 (Mus musculus [8]): 28.1 mg/kg; TD50 at 0.5 h [9]: 389 mg/kg; selectivity ratio [10]: 17.2; selectivity ratio [11]: 13.8; IC50 [12]: 1.29 µM
10 | O=C1CCc2cc(OCc3nnc(SCc4ccccc4F)o3)ccc2N1 | – | Active | Non-Toxic | Non-Toxic | – | Active | –
11 | CC(=O)Nc1ccc(OCc2nnc(SCc3cccc(C)c3)o2)cc1 | – | – | Non-Toxic | Non-Toxic | – | – | –
12 | CC(=O)Nc1ccc(OCc2nnc(SCc3ccccc3C)o2)cc1 | – | Active | Non-Toxic | Non-Toxic | – | Active | –
13 | CCCCCCCCCSc1nnc(COc2ccc(NC(C)=O)cc2)o1 | inactive | – | Non-Toxic | Non-Toxic | inactive | – | –
14 | O=C1CCc2cc(OCc3nnc(SCc4cccc(F)c4)o3)ccc2N1 | – | – | Non-Toxic | Non-Toxic | – | – | –
15 | CN1C(=O)CN=C(c2ccccc2)c2cc(Cl)ccc21 [DIAZEPAM] | – | – | – | – | – | – | Activity (Mus musculus [14]): Active; IC50 [12]: 0.042 µM; Activity (Rattus norvegicus): Active
16 | O=C1CCc2cc(OCc3nnc(SCc4ccccc4)o3)ccc2N1 | – | – | Non-Toxic | Non-Toxic | – | Active | –
17 | CCCCCSc1nnc(COc2ccc(-n3cnnc3)cc2)o1 | Active | – | Non-Toxic | Non-Toxic | Active | – | Activity (Mus musculus [5]): Active; ED50 (Mus musculus [7]): 18.7 mg/kg; ED50 (Mus musculus [8]): 27.9 mg/kg; TD50 at 0.5 h [9]: 421 mg/kg; selectivity ratio [10]: 22.5; selectivity ratio [11]: 15.1; IC50 [12]: 3.43 µM
18 | CC(=O)Nc1ccc(OCc2nnc(SCc3ccc(C(F)(F)F)cc3)o2)cc1 | Active | – | Non-Toxic | Non-Toxic | Active | – | –
19 | CCCCCCCSc1nnc(COc2ccc(-n3cnnc3)cc2)o1 | – | Active | Non-Toxic | Non-Toxic | – | Active | Activity (Mus musculus [5]): inactive; Activity (Mus musculus [15]): inactive
20 | Cc1ccc(CSc2nnc(COc3ccc4c(c3)CCC(=O)N4)o2)cc1 | Active | – | Non-Toxic | Non-Toxic | – | Active | –
21 | CCCCCCCCCSc1nnc(COc2ccc3c(c2)CCC(=O)N3)o1 | – | – | Non-Toxic | Non-Toxic | inactive | Active | –
22 | O=C1CCc2cc(OCc3nnc(SCc4cccc(Cl)c4)o3)ccc2N1 | – | Active | Non-Toxic | Non-Toxic | – | Active | –

Row | SMILES | Activity (Mus musculus [1]) | Activity (Mus musculus [2]) | Activity [3] | Activity [4] | Activity (Mus musculus [6]) | Activity (Mus musculus [13]) | further results
23 | CCCCSc1nnc(COc2ccc3c(c2)CCC(=O)N3)o1 | – | Active | Non-Toxic | Non-Toxic | – | Active | –
24 | CC(=O)Nc1ccc(OCc2nnc(SCc3cccc(F)c3)o2)cc1 | inactive | – | Non-Toxic | Non-Toxic | inactive | – | –
25 | CC(=O)Nc1ccc(OCc2nnc(SCc3ccccc3Cl)o2)cc1 | – | Active | Non-Toxic | Non-Toxic | – | Active | –
26 | CCCCCCSc1nnc(COc2ccc(-n3cnnc3)cc2)o1 | Active | – | Non-Toxic | Non-Toxic | Active | – | ED50 (Mus musculus [7]): 26.6 mg/kg; ED50 (Mus musculus [8]): 28.4 mg/kg; TD50 at 0.5 h [9]: 385 mg/kg; selectivity ratio [10]: 14.4; selectivity ratio [11]: 13.5; IC50 [12]: 9.31 µM
27 | Cc1ccccc1CSc1nnc(COc2ccc3c(c2)CCC(=O)N3)o1 | – | Active | Non-Toxic | Non-Toxic | – | Active | –
28 | CC(=O)Nc1ccc(OCc2nnc(SCc3ccccc3F)o2)cc1 | – | Active | Non-Toxic | Non-Toxic | – | Active | Activity (Mus musculus [15]): inactive
29 | Cc1cccc(CSc2nnc(COc3ccc4c(c3)CCC(=O)N4)o2)c1 | – | Active | Non-Toxic | Non-Toxic | – | Active | –
30 | CCCCCCCSc1nnc(COc2ccc3c(c2)CCC(=O)N3)o1 | – | – | Non-Toxic | Non-Toxic | – | Active | –
31 | CCCCCCSc1nnc(COc2ccc(NC(C)=O)cc2)o1 | Active | – | Non-Toxic | Non-Toxic | Active | – | ED50 (Mus musculus [7]): 20.9 mg/kg; ED50 (Mus musculus [8]): 26.8 mg/kg; TD50 at 0.5 h [9]: 420 mg/kg; selectivity ratio [10]: 20.1; selectivity ratio [11]: 15.6; IC50 [12]: 4.12 µM
32 | CC(=O)Nc1ccc(OCc2nnc(SCc3ccccc3C(F)(F)F)o2)cc1 | – | – | Non-Toxic | Non-Toxic | – | – | –
33 | CCC1(C)CC(=O)NC1=O (stereo unspecified) [ETHOSUXIMIDE] | – | – | Non-Toxic | – | – | – | ED50 (Mus musculus [8]): 106 mg/kg; TD50 at 0.5 h [9]: 343 mg/kg; selectivity ratio [11]: 3.2
34 | CCCCCCCCSc1nnc(COc2ccc3c(c2)CCC(=O)N3)o1 | – | – | Non-Toxic | Non-Toxic | – | Active | Activity (Mus musculus [5]): inactive
35 | CC(=O)Nc1ccc(OCc2nnc(SCc3ccc(C)cc3)o2)cc1 | – | Active | Non-Toxic | Non-Toxic | – | Active | –
36 | CCCCSc1nnc(COc2ccc(-n3cnnc3)cc2)o1 | – | – | Non-Toxic | Non-Toxic | – | Active | –
37 | O=C1CCc2cc(OCc3nnc(SCc4ccccc4C(F)(F)F)o3)ccc2N1 | – | Active | Non-Toxic | Non-Toxic | – | Active | –
38 | O=C1CCc2cc(OCc3nnc(SCc4ccccc4Cl)o3)ccc2N1 | – | – | Non-Toxic | Non-Toxic | inactive | Active | –
39 | CC(=O)Nc1ccc(OCc2nnc(SCc3ccc(F)cc3)o2)cc1 | – | Active | Non-Toxic | Non-Toxic | – | Active | –
40 | CC(=O)Nc1ccc(OCc2nnc(SCc3cccc(Cl)c3)o2)cc1 | inactive | – | Non-Toxic | Non-Toxic | inactive | – | –
41 | O=C1CCc2cc(OCc3nnc(SCc4cccc(C(F)(F)F)c4)o3)ccc2N1 | – | Active | Non-Toxic | Non-Toxic | – | Active | –
42 | CCCCCCCCSc1nnc(COc2ccc(NC(C)=O)cc2)o1 | – | – | Non-Toxic | Non-Toxic | – | – | Activity (Mus musculus [5]): inactive
43 | CCCCCCCSc1nnc(COc2ccc(NC(C)=O)cc2)o1 | – | – | Non-Toxic | Non-Toxic | – | – | –
